Reference: patent publication US20250177340A1, “Tartaric Acid Analogs and Uses Thereof” (Lapix Therapeutics, Inc., priority 2021, published 2025)

Key:
[1] = tested on: KLRG-1; assay: Percent KLRG-1+/CD8+ T-cells in splenocytes after a single dose, melanoma murine model; assay type: in vivo, mice
Experimental: (§1) The pharmacodynamic (PD) effects of a single IV dose of Compound B in a melanoma murine model were evaluated. B16F10 melanoma cells were grown in RPMI 1640 media supplemented with 10% FBS and antibiotics (penicillin/streptomycin) using T75 flasks. When cells reached 70-80% confluency, they were treated with 3 ml of 0.25% Trypsin/EDTA. Afterward, detached cells were harvested. A single-cell suspension was prepared in PBS. An IV injection of 10^5 cells in mice marked day −3 of the experiment.
(§2) Animals were housed four per cage, and had access to food and water ad libitum. Compound B was dissolved in sterile PBS, and pH was adjusted to approximately 7.5. Sterile PBS served as control.
(§3) Three days after the IV injection of melanoma cells, animals in the baseline group (n=3) were sacrificed and their spleens were collected for KLRG-1, CTLA-4, and PD-1 analysis. At each predetermined time-point (24, 48, and 120 hours after dosing) three animals from each group were sacrificed for splenocyte analysis of KLRG-1, CTLA-4, and PD-1 expression levels, and expression levels were compared to baseline.
(§4) Spleens collected for splenocyte analysis were prepared into a single-cell suspension for cellular phenotyping by flow cytometry. Cells were stained and gated for CD8. Percent KLRG-1+, CTLA-4+, and PD-1+ CD8+ T-cells were evaluated using flow cytometry.
(§5) The PD effects of a single IV dose of Compound C were evaluated in a melanoma murine model conducted as described in Example 10. […] This study also evaluated whether Compound C was pharmacodynamically active orally.
(§6) In a prior study, Compound C was dosed at 1 mg IV QD for seven days. […] A single PO dose was chosen to confirm oral activity of Compound C. Compound C was dissolved in DMSO, and then diluted in sterile PBS. pH was adjusted to approximately 7.5.
(§7) The oral and intravenous PD effects of a single dose of Compound E were evaluated in a melanoma murine model conducted as described in Example 10.
(§8) Compound E was dissolved in DMSO, and then diluted in sterile PBS. pH was adjusted to approximately 7.5.

[2] = tested on: Granzyme B and IFN-γ; assay: GzmB+/IFN-γ+ double-positive murine CD8+ T-cells, Example 7; assay type: cell-based, C57BL/6 mice
Text: In this study, the effects of increasing doses of compound B and compound C on proliferation (CFSE staining), activation (Granzyme B and IFN-γ), and checkpoint modulation (PD1 and TIM3) of murine CD8+ T-cells in the presence and absence of phosphatidylserine (PS) were explored.
Preparation of test materials: 30:70 PS:DMPC liposomes were synthesized in PBS. […] Compound C was first dissolved in a small volume of DMSO before diluting to the final desired concentration.
Tissue culture and dosing: Splenocytes of C57BL/6 mice were stained with CFSE and prepared, cultured, and dosed. Cells were seeded at 4×10^5 cells/well.
Controls: Two controls were used. A negative control dosed with 10 ng/ml IL-2 was used, and a positive control dosed with 20 μg/ml ConA and 10 ng/ml IL-2 was used.
Treatment: After ConA stimulation (10 μg/ml), cells were dosed with log 3 dilution of compound B or compound C to cover a range from 1×10^−3 to 30 mM in duplicates with or without 0.1 mM PS:DMPC liposomes. All wells were dosed with 10 ng/ml of IL-2.
Flow cytometer: Flow cytometer analysis was performed to assess cell proliferation by CFSE, activation by double staining for Granzyme B (GzmB) and IFN-γ, checkpoint modulation by double staining for PD-1 and TIM3.
Exposure-response analysis: Change from baseline was calculated for each marker as follows:
Concentration versus change was fitted to an appropriate three-, four- or five-parameter log-logistic model using “dre” package in “R.”
The fold change from baseline GzmB+/IFN-γ+ double-positive CD8+ T-cells as a function of increasing doses of compound B was calculated using equation 1, where Responsecontrol was GzmB+/IFN-γ+ double-positive CD8+ T-cells in cells treated with IL-2 alone and Responsetreatment was GzmB+/IFN-γ+ double-positive CD8+ T-cells at each dose of compound B. The baseline PS response was calculated using the same equation with Responsetreatment as the GzmB+/IFN-γ+ double-positive CD8+ T-cells treated with 0.1 mM PS.

[3] = Oral bioavailability; assay type: in vivo
[4] = tested on: PD-1; assay: Percent PD-1+/CD8+ T-cells in splenocytes after a single dose, melanoma murine model; assay type: in vivo, mice
Experimental: as §1, §2, §3, §4, §5, §6, §7, §8

[5] = 0.14 mg/mouse IV single dose, 24 h
[6] = 0.14 mg/mouse IV single dose, 48 h
[7] = 0.14 mg/mouse IV single dose, 120 h
[8] = 0.7 mg/mouse IV single dose, 24 h
[9] = 0.7 mg/mouse IV single dose, 48 h
[10] = 0.7 mg/mouse IV single dose, 120 h
[11] = 1.4 mg/mouse IV single dose, 24 h
[12] = 1.4 mg/mouse IV single dose, 48 h
[13] = 1.4 mg/mouse IV single dose, 120 h
[14] = increasing doses, absence of PS
[15] = 0.025 mg/mouse IV single dose, 24 h
[16] = 0.1 mg/mouse IV single dose, 24 h
[17] = 0.25 mg/mouse IV single dose, 24 h
[18] = 1 mg/mouse IV single dose, 24 h
[19] = 2.5 mg/mouse po single dose, 24 h
[20] = remaining groups (0.025, 0.1 mg IV, 2.5 mg PO)

## O=C(O)[C@H](O)[C@@H](O)C(=O)OCCCc1ccccc1 [Compound B, (2R,3R)-2,3-dihydroxy-4-oxo-4-(3-phenylpropoxy)butanoic acid]
[1]; [5]
  KLRG-1+/CD8+ T-cells, mean: 6.2%
[1]; [6]
  KLRG-1+/CD8+ T-cells, mean: 4.8%
[1]; [7]
  KLRG-1+/CD8+ T-cells, mean: 11.4%
[1]; [8]
  KLRG-1+/CD8+ T-cells, mean: 6.5%
[1]; [9]
  KLRG-1+/CD8+ T-cells, mean: 3.0%
[1]; [10]
  KLRG-1+/CD8+ T-cells, mean: 11.7%
[1]; [11]
  KLRG-1+/CD8+ T-cells, mean: 7.6%
[1]; [12]
  KLRG-1+/CD8+ T-cells, mean: 2.5%
[1]; [13]
  KLRG-1+/CD8+ T-cells, mean: 11.3%
[1]; single dose, KLRG-1, CTLA-4, PD-1
  time of nadir of exhaustion markers after dosing: 48 h
[2]; highest dose, 0.1 mM PS
  fold increase in GzmB+/IFN-γ+ double-positive CD8+ T-cells vs PS treated cell: 4.6 fold
  fold increase in GzmB+/IFN-γ+ double-positive CD8+ T-cells vs negative control: 2 fold
[2]; [14]
  fold increase in GzmB+/IFN-γ+ double-positive CD8+ T-cells vs negative control: more than 16 fold
[3]; mouse, in vivo, po, data not shown
  bioavailability: ~30%
[4]; [5]
  PD-1+/CD8+ T-cells, mean: 38.6%
[4]; [6]
  PD-1+/CD8+ T-cells, mean: 32.5%
[4]; [7]
  PD-1+/CD8+ T-cells, mean: 59.7%
[4]; [8]
  PD-1+/CD8+ T-cells, mean: 44.5%
[4]; [9]
  PD-1+/CD8+ T-cells, mean: 26.7%
[4]; [10]
  PD-1+/CD8+ T-cells, mean: 58.2%
[4]; 1.2 mg group, day 5
  reduction in PD-1+/CD8+ T-cell compared to control: 41.8%
[4]; [11]
  PD-1+/CD8+ T-cells, mean: 42.3%
[4]; [12]
  PD-1+/CD8+ T-cells, mean: 30.4%
[4]; [13]
  PD-1+/CD8+ T-cells, mean: 34.7%

## O=C(O)[C@H](O)[C@@H](O)C(=O)OCCC(c1ccccc1)c1ccccc1 [Compound C, (2R,3R)-4-(3,3-diphenylpropoxy)-2,3-dihydroxy-4-oxobutanoic acid]
[1]; [15]
  KLRG-1+/CD8+ T-cells, mean: 4.9%
[1]; [16]
  KLRG-1+/CD8+ T-cells, mean: 4.1%
[1]; [17]
  KLRG-1+/CD8+ T-cells, mean: 3.4%
[1]; [18]
  KLRG-1+/CD8+ T-cells, mean: 3.3%
[1]; 2.5 mg PO single dose
  oral pharmacodynamic activity: not orally effective at the tested dose
[1]; [19]
  KLRG-1+/CD8+ T-cells, mean: 4.6%
[1]; 0.25- and 1-mg IV groups
  decrease in KLRG-1+/CD8+ T-cells compared to baseline: approximately 15%
  decrease in KLRG-1+/CD8+ T-cells compared to time match control: approximately 31%
[1]; [20]
  change in KLRG-1+/CD8+ T-cells compared to baseline or control: No meaningful changes
[2]; highest dose, 0.1 mM PS
  fold increase in GzmB+/IFN-γ+ double-positive CD8+ T-cells vs PS treated cell: 18 fold
  fold increase in GzmB+/IFN-γ+ double-positive CD8+ T-cells vs negative control: 10 fold
[2]; [14]
  fold increase in GzmB+/IFN-γ+ double-positive CD8+ T-cells vs negative control: about 30 fold
[3]; prior study
  oral bioavailability: not orally bioavailable
[4]; [15]
  PD-1+/CD8+ T-cells, mean: 35%
[4]; [16]
  PD-1+/CD8+ T-cells, mean: 34%
[4]; [17]
  PD-1+/CD8+ T-cells, mean: 27%
[4]; [18]
  PD-1+/CD8+ T-cells, mean: 26%
[4]; [19]
  PD-1+/CD8+ T-cells, mean: 33%
[4]; 0.25- and 1-mg IV groups
  decrease in PD-1+/CD8+ T-cells compared to baseline: approximately 20%
  decrease in PD-1+/CD8+ T-cells compared to time match control: approximately 30%
[4]; [20]
  change in PD-1+/CD8+ T-cells compared to baseline or control: No meaningful changes
